Results from PubChem BioAssay (NCI).
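Dose response: 5 concentrations. Exposure: 48 h. Format: 96-well plates. Endpoint: linear interpolation; highest concentration if not reached. Here, GI50 denotes the concentration required for 50% inhibition of growth. TGI is the concentration that stops growth completely.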 Where a SMILES comes first, the peptide text is derived from it. The star is where a group is joined. Boc = CC(C)(C)OC(=O)*; OBn = c1ccc(CO*)cc1

Tests used:
Assay in all cases: NCI-60 cell line screen, 48 h
LOX IMVI melanoma = system: LOX IMVI melanoma
CCRF-CEM leukemia = system: CCRF-CEM leukemia
DMS 114 small cell lung = system: DMS 114 small cell lung
DLD-1 colon = system: DLD-1 colon
RXF 393 renal = system: RXF 393 renal
XF 498 CNS = system: XF 498 CNS
EKVX NSCLC = system: EKVX NSCLC
KM12 colon = system: KM12 colon
KM20L2 colon = system: KM20L2 colon
SNB-78 CNS = system: SNB-78 CNS
LXFL 529 NSCLC = system: LXFL 529 NSCLC
BT-549 breast = system: BT-549 breast
HS 578T breast = system: HS 578T breast
MDA-MB-435 = system: MDA-MB-435

Structure (SMILES) | TGI (LOX IMVI melanoma) [µM] | TGI (CCRF-CEM leukemia) [µM] | TGI (DMS 114 small cell lung) [µM] | TGI (DLD-1 colon) [µM] | TGI (RXF 393 renal) [µM] | TGI (XF 498 CNS) [µM] | TGI (EKVX NSCLC) [µM] | TGI (KM12 colon) [µM] | TGI (KM20L2 colon) [µM] | TGI (SNB-78 CNS) [µM] | TGI (LXFL 529 NSCLC) [µM] | GI50 (CCRF-CEM leukemia) [µM] | TGI (BT-549 breast) [µM] | TGI (HS 578T breast) [µM] | TGI (MDA-MB-435) [µM]
O=C1Nc2cc([N+](=O)[O-])c(Br)cc2C1=O | 35.2 | 32.1 | 33.5 | 46.5 | 39.4 | 24.6 | 47.4 | > 100 | 31.7 | 50.1 | – | – | – | – | –
COc1ccc2c(c1)OCCc1cn[nH]c1-2 | > 100 | > 100 | > 100 | > 100 | > 100 | 73.6 | 12.3 | > 100 | > 100 | > 100 | – | – | – | – | –
CC(=O)NNc1nc(C)c(C(=O)NNC(=O)C(=O)Nc2cccc(C(C)=O)c2)s1 | 39.1 | 67.3 | 34.2 | 98.9 | 30 | 30.6 | > 100 | 57.7 | > 100 | > 100 | – | – | – | – | –
Cc1ccc(Sc2ccccc2[N+](=O)[O-])cc1 | > 100 | > 100 | – | > 100 | 59.8 | – | > 100 | > 100 | > 100 | 95.4 | > 100 | – | – | – | –
COc1ccc2nc3c(c(NCCCN(C)C)c2c1)CCCC3 | 25.8 | 28.3 | 28.5 | 28.4 | 29.5 | 20.4 | 40.5 | 33 | 22.4 | 21.4 | 28.7 | – | – | – | –
C[S+](C)CC1OC(n2cnc3c(N)ncnc32)C(O)C1O (stereo not given) | > 225 | > 225 | > 225 | > 225 | > 225 | > 225 | > 225 | > 225 | > 225 | > 225 | – | – | – | – | –
CCOC(=O)c1cc2c(OCc3ccccc3)c(OC)cc3c2c(n1)N(c1ccc(OC)cc1)C(C)C3 (stereo not given) | > 50 | > 50 | > 50 | > 50 | > 50 | > 50 | > 50 | – | > 50 | – | > 50 | – | – | – | –
CC1(C)C2CCC3(OCCO3)C1C(O)C2 (stereo not given) | > 100 | > 100 | – | > 100 | > 100 | > 100 | > 100 | > 100 | > 100 | > 100 | > 100 | – | – | – | –
COc1cccc(/C(Cl)=C(\C=O)c2cccc(OC)c2)c1 | 20.3 | 28.8 | 16.4 | 29.1 | 25.1 | 27.1 | 38.7 | 26.3 | 47.8 | 30 | 20.9 | – | – | – | –
CCOC(=O)CCC1(C(=O)OCC)CCCC1=O (stereo not given) | > 100 | > 100 | > 100 | > 100 | > 100 | > 100 | > 100 | > 100 | > 100 | > 100 | > 100 | – | – | – | –
Cc1ccc(N(O)C(C)(C)C)cc1 | > 100 | > 100 | > 100 | > 100 | > 100 | > 100 | > 100 | > 100 | > 100 | – | – | – | – | – | –
Cc1cn(C2CC(CCCO)C(CO)O2)c(=O)[nH]c1=O (stereo not given) | > 100 | > 100 | > 100 | > 100 | > 100 | > 100 | > 100 | > 100 | > 100 | – | > 100 | > 100 | – | – | –
CC(C)(O)C1CC[C@]2(C)[C@H]3CC[C@@H]4[C@@]5(C)CCCC(C)(C)[C@@H]5CC[C@@]4(C)[C@]3(C)CC[C@@H]12 (stereo not given in full) | > 100 | > 100 | – | – | > 100 | – | > 100 | > 100 | – | – | – | – | > 100 | > 100 | > 100
CC(C)OP(=O)(OC(C)C)C1=NN(c2ccc([N+](=O)[O-])cc2)C(P(=O)(OC(C)C)OC(C)C)=NN1c1ccc([N+](=O)[O-])cc1 | > 100 | > 100 | > 100 | > 100 | > 100 | > 100 | > 100 | > 100 | > 100 | – | > 100 | – | – | – | –
Cc1ccc(-c2cc(O)c3nc4ccccc4n3c2)cc1 | > 100 | > 100 | – | – | > 100 | – | > 100 | > 100 | – | – | – | – | > 100 | > 100 | > 100
Cc1cccc2c1c1ccc3c(c1n2C)C(=O)C=CC3=O | 6.58 | 3.25 | 21.1 | 5.21 | 7.86 | – | 38.2 | 28.6 | 36.9 | 53.5 | 4.22 | – | – | – | –
CCOC(=O)C(C)Sc1nnc(COc2ccccc2OC)n1-c1ccccc1 (stereo not given) | 34.4 | > 100 | 28.1 | > 100 | > 100 | – | > 100 | > 100 | > 100 | > 100 | > 100 | – | – | – | –
COC(=O)C(=O)C(C(=O)C(=O)Nc1cccc([N+](=O)[O-])c1)c1nc2ccc(Cl)cc2[nH]c1=O (stereo not given) | > 100 | > 100 | – | – | > 100 | – | > 100 | > 100 | – | – | – | – | > 100 | > 100 | > 100
COC(=O)CC(C(C(=O)OCc1ccccc1)C(C)O)N1C(=O)OC(c2ccccc2)C1c1ccccc1 (stereo not given) | > 100 | > 100 | > 100 | > 100 | > 100 | > 100 | > 100 | – | > 100 | – | > 100 | – | – | – | –

Structure (SMILES) | TGI (LOX IMVI melanoma) [µM] | TGI (CCRF-CEM leukemia) [µM] | TGI (DMS 114 small cell lung) [µM] | TGI (DLD-1 colon) [µM] | TGI (RXF 393 renal) [µM] | TGI (XF 498 CNS) [µM] | TGI (EKVX NSCLC) [µM] | TGI (KM12 colon) [µM] | TGI (KM20L2 colon) [µM] | TGI (SNB-78 CNS) [µM] | TGI (LXFL 529 NSCLC) [µM] | GI50 (CCRF-CEM leukemia) [µM] | TGI (BT-549 breast) [µM] | TGI (HS 578T breast) [µM] | TGI (MDA-MB-435) [µM]
CCSCN(C)c1nc(N(C)C)nc(N(C)C)n1 | > 100 | > 100 | 89.7 | > 100 | 61.3 | – | > 100 | > 100 | > 100 | > 100 | > 100 | – | – | – | –
Cc1nnc2n(c1=O)CCN2C | > 100 | > 100 | – | – | > 100 | – | > 100 | > 100 | – | – | – | – | > 100 | > 100 | > 100
CCCc1c(C(=O)OCC)[nH]c(-c2ccc(-c3[nH]c(C(=O)OCC)c(CCC)c3C(=O)OCC)s2)c1C(=O)OCC | 66.3 | > 100 | > 100 | > 100 | 28.5 | > 100 | > 100 | > 100 | > 100 | > 100 | > 100 | – | – | – | –
O=c1[nH]c(=O)n(COCCO)c2ccsc12 | > 100 | > 100 | – | – | > 100 | – | > 100 | > 100 | – | – | – | – | > 100 | > 100 | > 100
CCOc1ccc(N=NC2C(=O)N(C(=O)CC(=O)Nc3ccccc3)N=C2C)cc1 (stereo not given) | > 100 | > 100 | – | – | > 100 | – | > 100 | > 100 | – | – | – | – | > 100 | 87.3 | 23.8
COc1cc(C2C(Cl)C(=O)N2NC(=O)c2ccc(NC(C)=O)cc2)ccc1O (stereo not given) | > 100 | > 100 | > 100 | > 100 | > 100 | > 100 | > 100 | – | > 100 | > 100 | > 100 | – | – | – | –
CS[C@]12[C@@H]3C(=O)N(C)C(=O)[C@@H]3[C@](C)(C(=O)N1C)C(=O)N2c1ccccc1 | > 100 | > 100 | – | – | > 100 | – | > 100 | > 100 | – | – | – | – | > 100 | > 100 | > 100
Oc1ccccc1C1C=C(c2ccccc2)NC(N2CCCCC2)=C1c1nc2ccccc2[nH]1 (stereo not given) | 31.2 | 47.7 | – | – | 24.7 | – | 18.8 | 31.3 | – | – | – | – | 28.5 | 31 | 29.6
CC(C)CC(NC(=O)OC(C)(C)C)C(=O)NC(CC(=O)OCc1ccccc1)C(=O)OCc1ccccc1 (stereo not drawn) (Boc-Leu-Asp(OBn)-OBn; configuration not given here) | 49.7 | > 100 | – | – | 90.5 | – | > 100 | > 100 | – | – | – | – | > 100 | > 100 | > 100
COc1ccc(C2OCCN2C)cc1 (stereo not given) | > 100 | > 100 | – | – | > 100 | – | > 100 | > 100 | – | – | – | – | > 100 | > 100 | > 100
COCC1OC(S(=O)(=O)c2ccccc2)C(O)C(OC)C1OC (stereo not given) | > 100 | > 100 | – | – | > 100 | – | > 100 | > 100 | – | – | – | – | > 100 | > 100 | > 100
CS(=O)(=O)c1nc(-c2cc3c(c(S(C)(=O)=O)n2)CCC3)cc2c1CCCC2 | 49.8 | > 100 | – | – | 40.5 | – | > 100 | > 100 | – | – | – | – | 83.8 | 14.1 | > 100
COC(=O)c1c(CC(Cc2ccc3c(c2)CCCC3)C(=O)OC)ccc2c1CCCC2 (stereo not given) | > 100 | > 100 | – | – | > 100 | – | 77.1 | > 100 | – | – | – | – | > 100 | > 100 | > 100
CN(C)CCNC(=O)c1cccc2cc3cc(O)ccc3nc12 | 2.72 | 5.44 | 3.13 | 4.88 | 10 | 2.51 | 5.24 | 10.4 | 8.13 | 18.2 | – | – | – | – | –
O=CC(O)C(O)C(O)C1CNC(=S)O1 (stereo not given) | > 100 | > 100 | – | – | > 100 | – | > 100 | > 100 | – | – | – | – | > 100 | > 100 | > 100
O=Nn1c2ccccc2c2cc([N+](=O)[O-])ccc21 | 30.9 | 44.5 | – | – | 30.8 | – | 36.3 | 42 | – | – | – | – | 38.3 | 82.9 | 32.8
O=NN(CCF)C(=O)NC1CC2CCC1C2 (stereo not given) | > 100 | > 100 | > 100 | > 100 | > 100 | – | > 100 | > 100 | > 100 | > 100 | – | – | – | – | –
O=c1c2ccccc2nc(-c2ccccc2)n1NC(=S)Nc1ccc(Cl)cc1 | > 100 | > 100 | > 100 | > 100 | > 100 | – | – | > 100 | – | – | > 100 | – | – | – | –
CN(C)c1ccc(/C=C/C(=O)N[C@@H]2C(=O)N3[C@@H]2SC(C)(C)[C@@H]3C(=O)O)cc1 | > 100 | > 100 | – | – | > 100 | – | > 100 | > 100 | – | – | – | – | > 100 | > 100 | > 100
